“And” between values parts separate entries of the source, which are not always exact repeats. Identical values can stand only once. Toxic doses and inconclusive results are not listed. No stated cut-off is given here; in the data, active means T/C of 150% or more; inactive means T/C below 125%.
Tested on: L1210 leukemia ip in BDF1 mice, survival T/C
Test: NCI In Vivo Anticancer Drug Screen. Data for tumor model L1210 Leukemia (intraperitoneal) in B6D2F1 (BDF1) mice
Settings: endpoint: mean survival time, higher = longer survival
Method in brief: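 Transplantable tumor model; survival measured in treated vs vehicle control mice. Value = treated/control.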

[1] = dose: 100.0 mg/kg/injection, schedule: Q04DX002 (ip), vehicle: Klucel (hydroxypropylcellulose) (HPC)
[2] = dose: 200.0 mg/kg/injection, schedule: Q04DX002 (ip), vehicle: Klucel (hydroxypropylcellulose) (HPC)
[3] = dose: 400.0 mg/kg/injection, schedule: Q04DX002 (ip), vehicle: Klucel (hydroxypropylcellulose) (HPC)
[4] = dose: 100.0 mg/kg/injection, schedule: Q01DX009 (ip), vehicle: Klucel (hydroxypropylcellulose) (HPC)
[5] = dose: 100.0 mg/kg/injection, schedule: Q04DX003 (ip), vehicle: other
[6] = dose: 200.0 mg/kg/injection, schedule: Q04DX003 (ip), vehicle: other
[7] = dose: 400.0 mg/kg/injection, schedule: Q04DX003 (ip), vehicle: other
[8] = dose: 100.0 mg/kg/injection, schedule: Q04DX003 (ip), vehicle: saline
[9] = dose: 200.0 mg/kg/injection, schedule: Q04DX003 (ip), vehicle: saline
[10] = dose: 400.0 mg/kg/injection, schedule: Q04DX003 (ip), vehicle: saline
[11] = dose: 100.0 mg/kg/injection, schedule: Q04DX003 (ip), vehicle: Klucel (hydroxypropylcellulose) (HPC)
[12] = dose: 200.0 mg/kg/injection, schedule: Q01DX009 (ip), vehicle: Klucel (hydroxypropylcellulose) (HPC)
[13] = dose: 200.0 mg/kg/injection, schedule: Q04DX003 (ip), vehicle: Klucel (hydroxypropylcellulose) (HPC)
[14] = dose: 400.0 mg/kg/injection, schedule: Q01DX009 (ip), vehicle: Klucel (hydroxypropylcellulose) (HPC)
[15] = dose: 400.0 mg/kg/injection, schedule: Q04DX003 (ip), vehicle: Klucel (hydroxypropylcellulose) (HPC)
[16] = dose: 100.0 mg/kg/injection, schedule: Q01DX001 (ip), vehicle: saline

Measured: T/C

CCOC(=O)Nc1c(O)cccc1N1CCOCC1
inactive: [1] 101 % of control | [2] 101 % of control | [3] 104 % of control

COc1ccc(OC)c(/C=C2\SC(=S)N(C3OC(COC(C)=O)C(OC(C)=O)C(OC(C)=O)C3OC(C)=O)C2=O)c1 (stereo unspecified)
inactive: dose: 25.0 mg/kg/injection, schedule: Q01DX005 (ip), vehicle: other 101 % of control | dose: 50.0 mg/kg/injection, schedule: Q01DX005 (ip), vehicle: other 108 % of control | dose: 100.0 mg/kg/injection, schedule: Q01DX005 (ip), vehicle: other 101 % of control | dose: 200.0 mg/kg/injection, schedule: Q01DX005 (ip), vehicle: other 97 % of control | dose: 400.0 mg/kg/injection, schedule: Q01DX005 (ip), vehicle: other 104 % of control

O=C(O)c1cc(O)cc(O)c1
inactive: dose: 25.0 mg/kg/injection, schedule: Q01DX009 (ip), vehicle: Klucel (hydroxypropylcellulose) (HPC) 100 % of control | dose: 50.0 mg/kg/injection, schedule: Q01DX009 (ip), vehicle: Klucel (hydroxypropylcellulose) (HPC) 97 % of control | [4] 100 % of control

Cc1cccc(N=Nc2c(C)nc(N)nc2C)c1C
inactive: [5] 94 % of control | [6] 96 % of control | [7] 93 % of control

CC12CC(O)C(C=C1c1ccccc1)C2(C)C (stereo unspecified)
inactive: dose: 100.0 mg/kg/injection, schedule: Q04DX002 (ip), vehicle: other 86 % of control | dose: 200.0 mg/kg/injection, schedule: Q04DX002 (ip), vehicle: other 93 % of control | dose: 400.0 mg/kg/injection, schedule: Q04DX002 (ip), vehicle: other 90 % of control

S=c1n(CN2CCCCC2)c2cncnc2n1CN1CCCCC1
inactive: dose: 75.0 mg/kg/injection, schedule: Q01DX Z (ip), vehicle: carboxymethylcellulose (CMC) 98 % of control | dose: 100.0 mg/kg/injection, schedule: Q01DX Z (ip), vehicle: carboxymethylcellulose (CMC) 109 % of control | dose: 125.0 mg/kg/injection, schedule: Q01DX Z (ip), vehicle: carboxymethylcellulose (CMC) 95 % of control

CCCCCCCCCCCC[Si](c1ccccc1)(c1ccccc1)c1ccccc1
inactive: [5] 94 % of control | [6] 96 % of control | [7] 90 % of control

O=S(=O)(O)c1ccc(O)c2ncccc12
inactive: [8] 95 % of control | [9] 101 % of control | [10] 101 % of control

O=[N+]([O-])c1ccc2c(c1)-c1[nH]c3ccccc3c1CS2
inactive: dose: 100.0 mg/kg/injection, schedule: Q01DX001 (ip), vehicle: acetone 100 % of control | dose: 200.0 mg/kg/injection, schedule: Q01DX001 (ip), vehicle: acetone 92 % of control | dose: 400.0 mg/kg/injection, schedule: Q01DX001 (ip), vehicle: acetone 92 % of control

N#CCN(CC#N)CCN(CC#N)CC#N
inactive: [4] 95 % of control | [11] 103 % of control | [12] 92 % of control | [13] 90 % of control | [14] 93 % of control | [15] 105 % of control

C=CCC(Cc1ccccc1)NCC1CC1 (stereo unspecified)
inactive: dose: 6.25 mg/kg/injection, schedule: Q04DX002 (ip), vehicle: saline with Tween-80 114 % of control | dose: 12.5 mg/kg/injection, schedule: Q04DX002 (ip), vehicle: saline with Tween-80 104 % of control | dose: 25.0 mg/kg/injection, schedule: Q04DX002 (ip), vehicle: saline with Tween-80 111 % of control

N#C/C=C/C1CCCCC1
inactive: dose: 25.0 mg/kg/injection, schedule: Q04DX003 (ip), vehicle: saline 109 % of control | dose: 50.0 mg/kg/injection, schedule: Q04DX003 (ip), vehicle: saline 107 % of control | [16] 95 % of control | [8] 105 % of control

CN(C)C1C(=O)C(C(=O)NCNC(CCS(C)=O)C(=O)O)=C(O)C2(O)C(=O)C3=C(O)c4c(O)cccc4C(C)(O)C3CC12 (stereo unspecified)
inactive: [16] 91 % of control | [8] 95 % of control | dose: 200.0 mg/kg/injection, schedule: Q01DX001 (ip), vehicle: saline 91 % of control | [9] 92 % of control | dose: 400.0 mg/kg/injection, schedule: Q01DX001 (ip), vehicle: saline 91 % of control | [10] 87 % of control

N#Cc1nc2c(nc1C#N)CCCC2
inactive: dose: 6.25 mg/kg/injection, schedule: Q04DX003 (ip), vehicle: Klucel (hydroxypropylcellulose) (HPC) 98 % of control | dose: 12.5 mg/kg/injection, schedule: Q04DX003 (ip), vehicle: Klucel (hydroxypropylcellulose) (HPC) 95 % of control | dose: 25.0 mg/kg/injection, schedule: Q01DX001 (ip), vehicle: Klucel (hydroxypropylcellulose) (HPC) 96 % of control | dose: 25.0 mg/kg/injection, schedule: Q04DX003 (ip), vehicle: Klucel (hydroxypropylcellulose) (HPC) 97 % of control and 102 % of control | dose: 50.0 mg/kg/injection, schedule: Q01DX001 (ip), vehicle: Klucel (hydroxypropylcellulose) (HPC) 105 % of control | dose: 100.0 mg/kg/injection, schedule: Q01DX001 (ip), vehicle: Klucel (hydroxypropylcellulose) (HPC) 104 % of control

CC(O)C12OC1CC1C3CC4OC45CC(O)CCC5(C)C3CCC12C (stereo unspecified)
inactive: dose: 100.0 mg/kg/injection, schedule: Q01DX001 (sc), vehicle: steriod suspending solution 106 % of control | dose: 200.0 mg/kg/injection, schedule: Q01DX001 (sc), vehicle: steriod suspending solution 103 % of control | dose: 400.0 mg/kg/injection, schedule: Q01DX001 (sc), vehicle: steriod suspending solution 109 % of control

O=C(NCCCO)C1C(c2ccccc2)C1c1ccccc1 (stereo unspecified)
inactive: dose: 100.0 mg/kg/injection, schedule: Q04DX002 (ip), vehicle: saline with Tween-80 108 % of control | dose: 200.0 mg/kg/injection, schedule: Q04DX002 (ip), vehicle: saline with Tween-80 102 % of control | dose: 400.0 mg/kg/injection, schedule: Q04DX002 (ip), vehicle: saline with Tween-80 102 % of control

Cc1cccc(Cl)c1NC(=S)NCc1ccco1
inactive: [4] 98 % of control | [12] 98 % of control | [14] 102 % of control

CC(C)(C)c1cc2c(cc1O)C(C)(C)CCC2(C)C
inactive: [1] 105 % of control | [2] 105 % of control | [3] 98 % of control

Nc1nc2nc(-c3ccccc3)[nH]c2c(=O)[nH]1
inactive: [11] 98 % of control | [13] 101 % of control | [15] 93 % of control

O=[N+]([O-])c1ccc(C#[C][Hg][C]#Cc2ccc([N+](=O)[O-])cc2)cc1
inactive: [8] 95 % of control | [9] 91 % of control | [10] 98 % of control

CC(C)CCSc1ccccc1
inactive: dose: 18.75 mg/kg/injection, schedule: Q01DX009 (ip), vehicle: acetone 91 % of control | dose: 37.5 mg/kg/injection, schedule: Q01DX009 (ip), vehicle: acetone 92 % of control | dose: 37.5 mg/kg/injection, schedule: Q04DX003 (ip), vehicle: acetone 100 % of control | dose: 75.0 mg/kg/injection, schedule: Q01DX001 (ip), vehicle: acetone 100 % of control | dose: 75.0 mg/kg/injection, schedule: Q01DX009 (ip), vehicle: acetone 91 % of control | dose: 75.0 mg/kg/injection, schedule: Q04DX003 (ip), vehicle: acetone 90 % of control | dose: 150.0 mg/kg/injection, schedule: Q01DX001 (ip), vehicle: acetone 94 % of control | dose: 150.0 mg/kg/injection, schedule: Q04DX003 (ip), vehicle: acetone 95 % of control

CN1CCCC(C)(CN2c3ccccc3Sc3ccccc32)C1 (stereo unspecified)
inactive: [8] 111 % of control | [9] 105 % of control

O=C1C(c2ccccc2)CS(=O)(=O)CC1c1ccccc1 (stereo unspecified)
inactive: dose: 50.0 mg/kg/injection, schedule: Q04DX002 (ip), vehicle: Klucel (hydroxypropylcellulose) (HPC) 101 % of control | [1] 99 % of control | [2] 96 % of control

CC(C)(C#N)N=NC(C)(C)C#N
inactive: dose: 25.0 mg/kg/injection, schedule: Q01DX009 (ip), vehicle: alcohol 96 % of control | dose: 50.0 mg/kg/injection, schedule: Q01DX009 (ip), vehicle: alcohol 96 % of control | dose: 50.0 mg/kg/injection, schedule: Q04DX003 (ip), vehicle: alcohol 98 % of control | dose: 100.0 mg/kg/injection, schedule: Q04DX003 (ip), vehicle: alcohol 95 % of control

COc1ccccc1C(=Nc1ccccc1)N(O)c1ccccc1
inactive: dose: 2.5 mg/kg/injection, schedule: Q01DX009 (ip), vehicle: saline with Tween-80 93 % of control | dose: 5.0 mg/kg/injection, schedule: Q01DX009 (ip), vehicle: saline with Tween-80 103 % of control

From PubChem BioAssay AID248 (DTP/NCI, 2004)
